Values belong to the substance of their own block, whether it stands above or below them.
Columns and labels:
[1] = hydrophobin-coated glassy carbon electrode, phosphate buffer pH 7
Protocol: Glassy carbon electrode was coated with hydrophobin by placing the electrode in a solution of hydrophobin (100 μg/ml) and incubating for 15 minutes, after which the electrode was thoroughly rinsed with water.
The electrode, modified and functionalized with the enzyme, was placed in a three electrode system, including an Ag/AgCl reference electrode and a Pt counter electrode, using phosphate buffer pH 7 (25 mM).
The modified electrode was stored in a sealed container, not in liquid, at 4° C., and tested frequently for activity and response to glucose.

[2] = Glucose oxidase and peroxidase immobilized on hydrophobin-coated TEFLON sheets, o-dianisidine colour assay at 435 nm; format: biochemical; conditions: hydrophobin-coated TEFLON sheet (SC3, trSC3, SC4), partner enzyme in solution
Protocol: The coating was achieved by incubating the TEFLON™ at 25° C. in 2 ml of a 100 μg/ml hydrophobin solution (here SC3, trSC3 and SC4 were used in separate experiments) in a 3 ml glass vial for 15 minutes. The sheets were removed from the hydrophobin solution and were washed with large amounts of water to remove any unbound hydrophobin.
Both sheets were placed in a container containing o-dianisidine and, upon addition of glucose, the solution became colored.
The functionalized TEFLON™ is still active after storage for several weeks at 4° C.

[3] = Cholesterol oxidase immobilized on hydrophobin-coated glassy carbon electrode, current response to cholesterol; format: biochemical; conditions: phosphate buffer pH 7
Source text: To overcome the poor solubility of cholesterol in water, the cholesterol was solubilized in isopropanol with Triton in phosphate buffer (Ropers, M.-H. et al., 2001, Phys. Chem. Chem. Phys. 3:240-245).

[4] = Different enzymes immobilized via SC3 hydrophobin on TEFLON, spectrophotometry at 412 and 435 nm; format: biochemical; conditions: SC3-coated TEFLON
Protocol: The surface was first coated with SC3 hydrophobin by immersion in the protein aqueous solution (0.3 mg/mL) during approximately 30 minutes. The obtained modified surface was then immersed in an aqueous enzyme solution during approximately 30 minutes. After each step, the TEFLON™ surface was rinsed with an adequate buffer solution. Activity of the immobilized enzymes was followed by spectrophotometry at 412 and 435 nm after immersion of the functionalized surface in the corresponding substrate solution. The optical density of the solution increases after the immersion of the functionalized surface and stays constant after its removal. […] The functionalized TEFLON® was stored at 4° C. in an Eppendorf tube containing a buffer solution.
(Biocatalysts, Wales; final concentration 2.1 mg/mL), lipase from Candida cylindracea (Biocatalysts, Wales; final concentration 0.25 mg/mL), porcine liver esterase (SIGMA; 41 U/mg of solid, final concentration 2.4 mg/mL), bovine pancreas trypsin (SIGMA; 8,750 U/mg of solid).

Substance: glucose oxidase
activity of glucose oxidase upon immobilization on the hydrophobin layer [1]: remained active
activity of immobilized enzyme (oxidation of o-dianisidine upon addition of glucose) [2]: absorption at 435 nm was observed

activity of enzyme attached to bare wells: not active
Substance: firefly luciferase: firefly luciferase (Roche, cat no. 411523)

activity of immobilized cholesterol oxidase [3]: remaining active
Substance: cholesterol oxidase

activity of immobilized enzyme (oxidation of o-dianisidine upon addition of glucose) [2]: Coloring of the solution
Substance: peroxidase: horseradish peroxidase (SIGMA)
state of immobilized enzymes (denaturation, desorption) [4]: not denatured and are not desorbed from the surface
function after storage ([4]; 4° C. in buffer solution): still functional after several weeks
